Experimental data reported in ChEMBL document CHEMBL3603746, “Discovery of New H2S Releasing Phosphordithioates and 2,3-Dihydro-2-phenyl-2-sulfanylenebenzo[d][1,3,2]oxazaphospholes with Improved Antiproliferative Activity” (J Med Chem, 2015).
Active and inactive are the calls of the source. The calls are words filed in the database; no cut-off is given here.

What was measured:
[1] = Induction of H2S release in 10% PBS:MeCN solution at 5 mM incubated at 22 degC in dark condition measured at 96 hrs by 2, 6-dansyl azide probed-based fluorescence assay relative to control; settings: buffer, 5000 µM
[2] = Induction of H2S release in 10% PBS:MeCN solution at 5 mM incubated at 37 degC in dark condition measured at 96 hrs by 1 mM 2, 6-dansyl azide probed-based fluorescence assay relative to control; settings: buffer, 5000 µM
[3] = Induction of H2S release in 10% PBS:MeCN solution assessed as ratio of H2S level at 37 degC to H2S level at 22 degC at 5 mM incubated in dark condition measured at 96 hrs by 2, 6-dansyl azide probed-based fluorescence assay; settings: buffer, 5000 µM
[4] = Induction of H2S release in 10% PBS:MeCN solution at 5 mM incubated at 22 degC in dark condition measured at 96 hrs by 2, 6-dansyl azide probed-based fluorescence assay relative to GYY4137; type: physicochemical; settings: buffer, 5000 µM
[5] = Induction of H2S release in 10% PBS:MeCN solution at 5 mM incubated at 37 degC in dark condition measured at 96 hrs by 2, 6-dansyl azide probed-based fluorescence assay relative to GYY4137; type: physicochemical; settings: buffer, 5000 µM
MCF7 [6] = assay: Cytotoxicity against human MCF7 cells assessed as inhibition of cell proliferation after 4 days by crystal violet assay; type: functional, cell-based; settings: MCF7, 96 h
MCF7 [7] = assay: cells; type: functional, cell-based; settings: Homo sapiens, MCF7, 72 h
Description: Cytotoxicity against human MCF7 cells assessed as inhibition of cell proliferation after 72 hrs by MTT assay

SK-OV-3 = assay: Cytotoxicity against human SKOV3 cells assessed as inhibition of cell proliferation after 4 days by crystal violet assay; type: functional, cell-based; settings: SK-OV-3, 96 h
MDA-MB-231 = assay: cells; type: functional, cell-based; settings: Homo sapiens, MDA-MB-231, 72 h
Description: Cytotoxicity against human MDA-MB-231 cells assessed as inhibition of cell proliferation after 72 hrs by MTS assay

PC-3 = assay: cells; type: functional, cell-based; settings: Homo sapiens, PC-3, 72 h
Description: Cytotoxicity against human PC3 cells assessed as inhibition of cell proliferation after 72 hrs by MTT assay

[8] = Toxicity in human WI38 cells assessed as inhibition of cell proliferation after 4 days by crystal violet assay
[9] = Therapeutic index, ratio of IC50 for human WI38 cells to IC50 for human MCF7 cells; settings: WI38 cells and MCF7 cells
[10] = Therapeutic index, ratio of IC50 for human WI38 cells to IC50 for human SKOV3 cells; settings: WI38 cells and SKOV3 cells
[11] = Therapeutic index, ratio of IC50 for human WI38 cells to IC50 for human MBA-MD-231 cells; settings: WI38 cells and MBA-MD-231 cells
[12] = Therapeutic index, ratio of IC50 for human WI38 cells to IC50 for human PC3 cells; settings: WI38 cells and PC3 cells
[13] = Induction of H2S release in aqueous acetonitrile solution at 200 uM measured over 4 days by probe 21-based fluorescence assay; settings: buffer, 96 h
[14] = Induction of H2S release in aqueous acetonitrile solution at 400 uM measured over 4 days by probe 21-based fluorescence assay; settings: buffer, 96 h
[15] = Induction of H2S release in 10% PBS:MeCN solution at 5 mM incubated at 37 degC in dark condition measured at 96 hrs by 0.2 mM 2, 6-dansyl azide probed-based fluorescence assay relative to control; type: physicochemical; settings: buffer, 5000 µM
[16] = Effective permeability of the compound at 500 uM after 6 hrs by PAMPA; settings: PAMPA
[17] = Effective permeability of the compound at 500 uM after 16 hrs by PAMPA
physchem [18] = settings: DMSO, pH 7.4
Description: Kinetic solubility of the compound in DMSO at pH 7.4 measured at 3 hrs by multiscreen filter paper-based UV absorbance analysis

physchem [19] = settings: DMSO, pH 7.4; remark: listed apart in the source
Description: Kinetic solubility of the compound in DMSO at pH 7.4 measured at 24 hrs by multiscreen filter paper-based UV absorbance analysis

[20] = Toxicity in transforming growth factor alpha transgenic mouse hepatocytes assessed as inhibition of cell proliferation after 24 hrs by CellTiter-Glo cell viability assay; type: cell-based, Hepatocyte
[21] = Toxicity in human AC10 cells assessed as inhibition of cell proliferation after 24 hrs by CellTiter-Glo cell viability assay; type: cell-based
Salmonella typhi [22] = assay: Genotoxicity in Salmonella […] TA98 at 10 to 100 ug/plate after 48 hrs by Ames test in presence of S9 fraction; type: toxicity, organism-based; settings: salmonella enterica subsp. enterica serovar […], s9, 48 h
Salmonella typhi [23] = assay: Genotoxicity in Salmonella […] TA100 at 10 to 100 ug/plate after 48 hrs by Ames test in presence of S9 fraction; type: toxicity, organism-based; settings: salmonella enterica subsp. enterica serovar […], s9, 48 h
Salmonella typhi [24] = assay: Genotoxicity in Salmonella […] TA98 at 10 to 100 ug/plate after 48 hrs by Ames test in absence of S9 fraction; type: toxicity, organism-based; settings: salmonella enterica subsp. enterica serovar […]
Salmonella typhi [25] = assay: Genotoxicity in Salmonella […] TA100 at 10 to 100 ug/plate after 48 hrs by Ames test in absence of S9 fraction; type: toxicity, organism-based; settings: salmonella enterica subsp. enterica serovar […]
MCF7 [26] = assay: Reduction of intracellular pH in human MCF7 cells at 50 uM after 48 hrs by BCECF-AM staining-based confocal microscopic analysis; type: functional
MCF7 [27] = assay: Induction of H2S release in human MCF7 cells at 200 uM measured at 6 hrs by probe 21-based fluorescence assay; type: functional
MCF7 [28] = assay: Induction of H2S release in human MCF7 cells at 400 uM measured at 6 hrs by probe 21-based fluorescence assay; type: functional
MCF7 [29] = assay: Induction of H2S release in human MCF7 cells at 200 uM measured at 24 hrs by probe 21-based fluorescence assay; type: functional
MCF7 [30] = assay: Induction of H2S release in human MCF7 cells at 400 uM measured at 24 hrs by probe 21-based fluorescence assay; type: functional
MCF7 [31] = assay: Induction of H2S release in human MCF7 cells at 400 uM after 5 hrs by probe 21-based confocal fluorescence microscopic analysis; type: functional, cell-based
[32] = Induction of H2S release in 10% PBS:MeCN solution at 0.5 mM incubated at 22 degC in dark condition measured at 48 hrs by 2, 6-dansyl azide probed-based fluorescence assay relative to control; type: physicochemical; settings: buffer, 500 µM
[33] = Induction of H2S release in 10% PBS:MeCN solution at 0.5 mM incubated at 37 degC in dark condition measured at 48 hrs by 1 mM 2, 6-dansyl azide probed-based fluorescence assay relative to control; type: physicochemical; settings: buffer, 500 µM
[34] = Induction of H2S release in 10% PBS:MeCN solution assessed as ratio of H2S level at 37 degC to H2S level at 22 degC at 0.5 mM incubated in dark condition measured at 96 hrs by 2, 6-dansyl azide probed-based fluorescence assay; type: physicochemical; settings: buffer, 500 µM
[35] = Induction of H2S release in 10% PBS:MeCN solution at 0.5 mM incubated at 22 degC in dark condition measured at 48 hrs by 2, 6-dansyl azide probed-based fluorescence assay relative to 12 uM of GYY4137; type: physicochemical; settings: buffer, 500 µM
[36] = Induction of H2S release in 10% PBS:MeCN solution at 0.5 mM incubated at 37 degC in dark condition measured at 48 hrs by 2, 6-dansyl azide probed-based fluorescence assay relative to 6.9 uM of GYY4137; type: physicochemical; settings: buffer, 500 µM
[37] = Toxicity in human AC10 cells assessed as inhibition of cell proliferation at 100 uM after 24 hrs by CellTiter-Glo cell viability assay relative to control; type: cell-based
Hepatocyte = assay: Toxicity in transforming growth factor alpha transgenic mouse hepatocytes at 100 uM after 24 hrs by CellTiter-Glo cell viability assay; type: cell-based

Compound | %max [1] | %max [2] | Ratio [3] | fold change (FC) [4] | fold change (FC) [5] | IC50 (MCF7 [6]) | IC50 (MCF7 [7]) | IC50 (SK-OV-3) | IC50 (MDA-MB-231) | IC50 (PC-3) | IC50 at 4 days [8] | selectivity ratio [9] | selectivity ratio [10] | selectivity ratio [11] | selectivity ratio [12] | Activity [13] | Activity [14] | Papp at 6 h, 500 µM [16] | Papp at 16 h, 500 µM [17] | solubility kinetic at 3 h (physchem [18]) | other results
COc1ccc(P(=S)(S)NCc2ccccc2)cc1.NCc1ccccc1 (stereo not given) | 2.19% | 5.07% | 2.3 | 1.5 | 0.8 | 84.2 µM | 82.4 µM | 89.9 µM | 41.1 µM | 31.9 µM | 208 µM | 2.3 | 2.3 | 2.3 | 2.3 | 5.55 µM | 10.29 µM |  |  |  | 
CCNCCOP(=S)(S)c1ccc(OC)cc1 (stereo not given) | < 0.01% |  |  |  | < 0.1 | > 400 µM | 481 µM | > 400 µM | > 500 µM |  |  |  |  |  |  |  |  | 0.013 ×10⁻⁶ cm/s | 0.0041 ×10⁻⁶ cm/s | > 290 µg/mL | %max [15]: 0.03%; solubility kinetic at 24 h (physchem [19]): > 290 µg/mL
NCc1ccccc1.S=P(S)(NCc1ccccc1)c1ccc(Oc2ccccc2)cc1 (stereo not given) | 1.28% | 2.81% | 2.2 | 0.9 | 0.5 | 36.3 µM | 67.6 µM | 47 µM | 55.4 µM | 45.6 µM | 104 µM | 1.5 | 1.5 | 1.5 | 1.5 | 9.03 µM | 17.19 µM | 0.19 ×10⁻⁶ cm/s | 0.97 ×10⁻⁶ cm/s | 200 µg/mL | IC50 at 24 h [20]: 23.5 µM; IC50 at 24 h [21]: 62.6 µM; Activity (Salmonella typhi [22]): Non-toxic; Activity (Salmonella typhi [23]): Non-toxic; Activity (Salmonella typhi [24]): Non-toxic; Activity (Salmonella typhi [25]): Non-toxic; pH (MCF7 [26]): 6.75; Activity (MCF7 [27]): 41.5 µM; Activity (MCF7 [28]): 48.2 µM; Activity (MCF7 [29]): 93.4 µM; Activity (MCF7 [30]): 74.6 µM; Activity (MCF7 [31]): Active; solubility kinetic at 24 h (physchem [19]): 180 µg/mL
C1CSCCN1.S=P(S)(N1CCSCC1)N1CCSCC1 |  |  |  |  |  | 20.4 µM |  | 15.8 µM |  |  | 30.4 µM | 1.5 | 1.5 | 1.5 | 1.5 |  |  |  |  |  | %max [32]: 48.5%; %max [33]: 62.6%; Ratio [34]: 1.3; fold change (FC) [35]: 40; fold change (FC) [36]: 90.7; IC50 at 24 h [20]: 120 µM; inhibition at 24 h, 100 µM [37]: 35.6%
C1COCCN1.CC(C)OP(=S)(S)c1ccc(Oc2ccccc2)cc1 (stereo not given) | 0.06% |  | 2.6 | < 0.1 | < 0.1 | 51.4 µM | 178 µM | 50.2 µM | 94.8 µM | 50.8 µM | 72.8 µM | 1.4 | 1.4 | 1.4 | 1.4 |  |  | 0.0066 ×10⁻⁶ cm/s | 0.0051 ×10⁻⁶ cm/s | > 400 µg/mL | %max [15]: 0.15%; inhibition at 24 h, 100 µM [37]: 28.6%; solubility kinetic at 24 h (physchem [19]): > 400 µg/mL
C1COCCN1.S=P(S)(N1CCOCC1)N1CCOCC1 |  |  |  |  |  | 221 µM | 331 µM | 267 µM | 381 µM |  | 683 µM | 2.6 | 2.6 | 2.6 | 2.6 |  |  |  |  |  | %max [32]: 67.2%; %max [33]: 76.2%; Ratio [34]: 1.1; fold change (FC) [35]: 56; fold change (FC) [36]: 110.4; Activity (Hepatocyte): Non-toxic
C1COCCN1.S=P(S)(c1ccc(Oc2ccccc2)cc1)N1CCOCC1 (stereo not given) | 1.68% | 5.54% | 3.3 | 1.2 | 0.9 | 195 µM | 163 µM | 326 µM | 95.2 µM | 102 µM | 656 µM | 2 | 2 | 2 | 2 | 4.14 µM | 5.47 µM | 0.015 ×10⁻⁶ cm/s | 0.013 ×10⁻⁶ cm/s |  | Activity (Hepatocyte): Non-toxic
